The conditions of data set [1]: Impagnatiello et al., cited from earlier work.
A short description of data set [2]: Solubility in water and aqueous solutions. Format: physicochemical. Particulars: aqueous solution at pH 6.0 containing 0.5% (w/w) of macrogol 15-hydroxystearate (Kolliphor® HS15).

For `CCNC(=O)CCC/C=C\C[C@@H]1[C@@H](/C=C/[C@H](CCc2ccccc2)OC(=O)CCCCCO[N+](=O)[O-])[C@H](O)C[C@@H]1O` [NCX 470, Hexanoic acid, 6-(nitrooxy)-, (1S,2E)-3-[(1R,2R,3S,5R)-2-[(2Z)-7-(ethylamino)-7-oxo-2-hepten-1-yl]-3,5-dihydroxycyclopentyl]-1-(2-phenylethyl)-2-propen-1-yl ester], the “IOP-lowering efficacy versus equimolar doses of bimatoprost” value in data set [1] (British Journal of Pharmacology (2018), vehicle 0.25% Tween 80, 0.02% BAK, 2% glycerine, 0.1% EDTA) was “greater IOP-lowering efficacy”. Further, the “intra ocular pressure (IOP)-lowering agent” value in data set [1] (Invest Ophthalmol Vis Sci. 2015) is “effective”. For the same compound, the solubility in data set [2] is 0.070 % (w/w).

The values are drawn from patent US12186295B2, “Ophthalmic compositions containing a nitric oxide releasing prostamide” (NICOX S.A., priority 2018, dated 2025).
